“Also recorded” adds a separate entry of the source.
Key:
[1] = test system: FtsZ in S. pyogenes ATCC 19615 cells; assay: Fluorescence microscopy FtsZ visualization in live cells; assay type: cell-based; conditions: 1 μg/mL (1.3 μM) BOFP, 5 minutes
Protocol: (§1) Fluorescence microscopy assay for visualizing FtsZ and monitoring cell division in live Gram-positive and Gram-negative bacterial cells using BOFP. All fluorescence microscopy experiments were conducted using an Olympus BX50 microscope equipped with an X-cite Exacte 200W mercury lamp, a 100× Olympus UPLSAPO oil immersion objective (1.40 aperture), and a Chroma ET-EGFP (FITC/Cy2) filter. Images were captured using a QImaging Retiga R3 charge-coupled device (CCD) camera and the Ocular-Version 2.0 software package (QImaging).
(§2) For visualizing FtsZ in Gram-positive bacteria using BOFP, the bacterial cells were grown to log-phase in media suitable for each individual pathogen. Specifically, S. aureus NRS705 was grown in tryptic soy broth (TSB), E. faecalis ATCC 29212 and E. faecium ATCC 19434 were grown in lactobacilli MRS broth, S. agalactiae ATCC 12386 and S. pneumoniae ATCC 49619 were grown in TH broth, and S. pyogenes ATCC 19615 was grown in CAMH broth supplemented with 3% (v/v) LHB. For each Gram-positive bacterial strain, a total of 1 mL of cell culture was centrifuged at 15,000×g for 1 minute and washed 2-3 times with 1 mL of PBS. After the final wash, the pelleted cells were resuspended in 500 μL of PBS containing 1 μg/mL of BOFP and incubated in the dark for 5 minutes at room temperature. The cells were then centrifuged at 15,000×g for 1 minute, washed twice with 1 mL of PBS, and subsequently resuspended in 200 μL of PBS. 8 μL of this final cell suspension was then spread on a 0.25 mm layer of 1.5% high-resolution agarose (Sigma) in PBS, which was mounted on a standard 75×25×1 mm microscope slide (Azer Scientific) using a 1.7×2.8×0.025 cm Gene Frame (ThermoFisher). A 24×40 mm cover slip (Azer Scientific) was then applied to the agarose pad to prepare the slide for microscopic visualization.

[2] = test system: FtsZ in S. agalactiae ATCC 12386 cells; assay: as above; assay type: cell-based; conditions: 1 μg/mL (1.3 μM) BOFP, 5 minutes
Protocol: as §1, §2

[3] = test system: FtsZ in E. faecium ATCC 19434 cells; assay: as above; assay type: cell-based; conditions: 1 μg/mL (1.3 μM) BOFP, 5 minutes
Protocol: as §1, §2

[4] = target: T1, FtsZ in E. faecalis ATCC 29212 cells (Enterococcus faecalis, UniProt O08439); assay: as above; assay type: cell-based; conditions: 1 μg/mL (1.3 μM) BOFP, 5 minutes
T1 construct: endogenous in cells; host or cells: E. faecalis ATCC 29212
T1 sequence (O08439 whole entry): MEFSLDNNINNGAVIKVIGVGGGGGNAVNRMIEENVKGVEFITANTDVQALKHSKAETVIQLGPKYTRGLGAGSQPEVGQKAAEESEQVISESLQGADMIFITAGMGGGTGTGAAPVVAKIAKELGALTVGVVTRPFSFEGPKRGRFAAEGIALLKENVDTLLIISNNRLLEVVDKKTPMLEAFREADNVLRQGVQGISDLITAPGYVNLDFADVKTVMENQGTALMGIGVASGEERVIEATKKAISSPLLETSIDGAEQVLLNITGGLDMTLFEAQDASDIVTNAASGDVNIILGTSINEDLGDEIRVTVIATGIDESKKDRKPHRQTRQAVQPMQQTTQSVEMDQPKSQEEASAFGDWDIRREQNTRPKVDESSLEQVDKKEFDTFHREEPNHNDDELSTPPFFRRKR
Protocol: as §1, §2

[5] = target: T2, FtsZ in S. aureus NRS705 cells (Staphylococcus aureus, UniProt P0A031); assay: as above; assay type: cell-based; conditions: 1 μg/mL (1.3 μM) BOFP, 5 minutes
T2 construct: endogenous in cells; host or cells: S. aureus NRS705
T2 sequence (P0A031 1-390): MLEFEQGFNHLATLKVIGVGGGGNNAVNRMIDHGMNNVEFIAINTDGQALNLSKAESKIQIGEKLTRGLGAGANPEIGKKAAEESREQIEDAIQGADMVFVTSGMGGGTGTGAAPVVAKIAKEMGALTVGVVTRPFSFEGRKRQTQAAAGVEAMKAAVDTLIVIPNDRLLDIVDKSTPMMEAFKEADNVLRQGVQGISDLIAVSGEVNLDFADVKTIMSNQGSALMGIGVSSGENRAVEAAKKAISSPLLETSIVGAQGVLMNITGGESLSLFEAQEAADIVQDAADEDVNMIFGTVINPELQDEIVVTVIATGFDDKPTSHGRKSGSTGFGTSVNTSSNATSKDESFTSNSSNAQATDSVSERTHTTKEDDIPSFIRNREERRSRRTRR
Protocol: as §1, §2

[6] = test system: FtsZ in S. pneumoniae ATCC 49619 cells; assay: as above; assay type: cell-based; conditions: 1 μg/mL (1.3 μM) BOFP, 5 minutes
Protocol: as §1, §2

[7] = target: T3, S. aureus FtsZ (SaFtsZ) (Staphylococcus aureus, UniProt P0A031); assay: Fluorescence anisotropy binding of BOFP to FtsZ; conditions: 0.1 μM BOFP, 10 μM SaFtsZ, 37° C.
T3 sequence (P0A031 1-390): T2 sequence (P0A031 1-390)

[8] = target: T4, FtsZ in E. coli ATCC 25922 cells (Escherichia coli, UniProt P0A9A6); assay: Fluorescence microscopy FtsZ visualization in live cells; assay type: cell-based; conditions: 1 μg/mL BOFP for 5 minutes, no pentamidine
T4 construct: endogenous in cells; host or cells: E. coli ATCC 25922
T4 sequence (P0A9A6 whole entry): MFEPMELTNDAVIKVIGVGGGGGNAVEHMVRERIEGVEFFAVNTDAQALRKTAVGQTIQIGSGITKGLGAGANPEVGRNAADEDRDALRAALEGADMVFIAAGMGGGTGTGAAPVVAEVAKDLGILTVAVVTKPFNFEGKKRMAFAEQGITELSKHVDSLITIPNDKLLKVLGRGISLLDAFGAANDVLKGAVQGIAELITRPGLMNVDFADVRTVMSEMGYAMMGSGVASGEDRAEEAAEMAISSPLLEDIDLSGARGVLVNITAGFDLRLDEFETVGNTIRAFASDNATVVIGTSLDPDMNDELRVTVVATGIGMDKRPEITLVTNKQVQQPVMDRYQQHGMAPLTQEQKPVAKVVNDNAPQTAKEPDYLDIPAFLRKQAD
Protocol: as §1
(§3) For visualizing FtsZ in Gram-negative bacteria using BOFP, E. coli ATCC 25922, K. pneumoniae ATCC 13883, P. aeruginosa ATCC 27853, and A. baumannii ATCC 19606 were grown to log-phase in CAMH broth. For each Gram-negative bacterial strain, a total of 1 mL of cell culture was centrifuged at 15,000×g for 1 minute and washed twice with 1 mL of Tris-buffered saline (TBS) composed of 50 mM Tris-HCl pH 7.6 and 150 mM NaCl. […] The resuspended cells were then incubated in the dark for 5 minutes at room temperature, centrifuged at 15,000×g for 1 minute, washed twice with 1 mL of TBS, and subsequently resuspended in 200 μL of TBS. This final cell suspension was then prepared for microscopy as described above for the Gram-positive bacterial strains.

[9] = test system: FtsZ in A. baumannii ATCC 19606 cells; assay: as above; assay type: cell-based; conditions: 1 μg/mL BOFP for 5 minutes, no pentamidine
Protocol: as §1, §3

[10] = test system: FtsZ in K. pneumoniae ATCC 13883 cells; assay: as above; assay type: cell-based
Protocol: as §1, §3

[11] = target: T5, FtsZ in P. aeruginosa ATCC 27853 cells (Pseudomonas aeruginosa, UniProt P47204); assay: as above; assay type: cell-based; conditions: 1 μg/mL BOFP for 5 minutes, no pentamidine
T5 construct: endogenous in cells; host or cells: P. aeruginosa ATCC 27853
T5 sequence (P47204 1-394): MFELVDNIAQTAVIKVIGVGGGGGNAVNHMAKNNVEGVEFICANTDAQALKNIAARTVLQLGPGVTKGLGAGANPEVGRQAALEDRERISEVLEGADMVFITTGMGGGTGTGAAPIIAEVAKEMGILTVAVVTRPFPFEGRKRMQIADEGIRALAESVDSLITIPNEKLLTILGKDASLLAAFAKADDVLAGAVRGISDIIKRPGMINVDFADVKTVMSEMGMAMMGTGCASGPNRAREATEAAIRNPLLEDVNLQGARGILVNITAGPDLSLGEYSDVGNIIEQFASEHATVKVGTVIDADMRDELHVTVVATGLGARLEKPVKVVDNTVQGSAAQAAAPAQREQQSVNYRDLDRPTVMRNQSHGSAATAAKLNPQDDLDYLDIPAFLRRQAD
Protocol: as §1, §3

CC1=CC(C)=[N+]2C1=Cc1ccc(CCC(=O)OCC(Oc3ccc(F)c(C(N)=O)c3F)c3nc(-c4ccc(C(F)(F)F)cc4)c(Br)o3)n1[B-]2(F)F (stereo not shown) [BOFP, 2-(5-bromo-4-(4-(trifluoromethyl)phenyl)-oxazol-2-yl)-2-(3-carbamoyl-2,4-difluorophenoxy)ethyl 3-(5,5-difluoro-7,9-dimethyl-5H-5λ^4,6λ^4-dipyrrolo[1,2-c:2′,1′-f][1,3,2]diazaborinin-3-yl)propanoate]
FtsZ labeling (fluorescence staining) in live cells [1]: bright bands of fluorescence staining were clearly visible at midcell
FtsZ labeling (fluorescence staining) in live cells [2]: bright bands of fluorescence staining were clearly visible at midcell
FtsZ labeling (fluorescence staining) in live cells [3]: bright bands of fluorescence staining were clearly visible at midcell
FtsZ labeling (fluorescence staining) in live cells [4]: bright bands of fluorescence staining were clearly visible at midcell
FtsZ labeling (fluorescence staining) in live cells [5]: bright bands of fluorescence staining were clearly visible at midcell
FtsZ labeling (fluorescence staining) in live cells [6]: bright bands of fluorescence staining were clearly visible at midcell
effect of both GMPCPP and MgCl2 on the anisotropy of SaFtsZ-bound BOFP ([7]; GMPCPP 0.1 mM and MgCl2 10 mM): modest increase in the anisotropy
effect of GMPCPP alone or MgCl2 alone on the anisotropy of SaFtsZ-bound BOFP ([7]; GMPCPP 0.1 mM or MgCl2 10 mM): neither GMPCPP alone (at 0.1 mM) nor MgCl2 alone (at 10 mM) has a significant effect; also recorded: independent of either GTP or magnesium
FtsZ labeling in live cells without pentamidine [8]: little or no FtsZ labeling
FtsZ labeling in live cells without pentamidine [9]: little or no FtsZ labeling
FtsZ labeling in live cells without pentamidine ([10]; 1 μg/mL BOFP for 5 minutes, no pentamidine): little or no FtsZ labeling
FtsZ labeling (fluorescence staining) in live cells ([10]; 1 μg/mL BOFP with 3.5 mg/mL pentamidine isethionate, 5 minutes): bright fluorescence staining is visible both at midcell and along the cell periphery
FtsZ labeling in live cells without pentamidine [11]: little or no FtsZ labeling

Reference: patent publication US12061201B2, “Fluorescent probes for the visualization of FtsZ in gram-positive and gram-negative bacterial pathogens” (Rutgers, The State University of New Jersey, priority 2019, dated 2024)
